Experimental findings from patent publication US10336792B2, “Antimicrobial peptide dendrimers” (priority 2014, dated 2019) are described below.

≈ marks a conversion by molar mass, not a printed value. Positions of bridges follow the written chain, without caps; N, C: chain ends. Non-standard residues stand in square brackets, D forms with d. Residues, ends and D or L forms follow the SMILES beside them. Groups on a side chain read outwards from the residue. Chains are numbered I, II in the order given. Dab = NCC[C@H](N)C(=O)O; Dap = NC[C@H](N)C(=O)O

What all share (format): cell-based
The subject of experiment [1] is Escherichia coli (strain DH5α). The conditions noted are these: DH5α. The essentials: (§1)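 Broth microdilution MIC in LB; overnight cultures diluted to OD600 0.001 and mixed 1:1 with ⅔-serially diluted samples (stock 1 mg mL^−1 in H2O), 37° C for 18-24 h. MTT (0.1%) added; MIC read by eye as lowest concentration inhibiting visible growth (yellow).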
For experiment [2], the system named is Bacillus subtilis (strain BR151). The note with it: strain BR151. The method in brief:
as §1

The subject of experiment [3] is Pseudomonas aeruginosa (strain PA01). The experiment can be described thus: microbe, parasite or virus in culture. The conditions noted are these: strain. The method in brief: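 P. aeruginosa PAO1 grown overnight in LB, diluted to OD600 0.001 and mixed with ⅔-step peptide dilutions, then incubated at 37 °C for 18–24 h. After MTT staining, the lowest concentration with no visible growth was read by eye as the MIC.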

On to `CC(C)C[C@H](NC(=O)[C@H](CCN)NC(=O)[C@H](CCCCNC(=O)[C@H](CC(C)C)NC(=O)[C@H](CCN)NC(=O)[C@H](CCCCNC(=O)[C@H](CC(C)C)NC(=O)[C@H](CCN)NC(=O)[C@H](CCCCNC(=O)[C@H](CC(C)C)NC(=O)[C@@H](N)CCN)NC(=O)[C@H](CC(C)C)NC(=O)[C@@H](N)CCN)NC(=O)[C@H](CC(C)C)NC(=O)[C@H](CCN)NC(=O)[C@H](CCCCNC(=O)[C@H](CC(C)C)NC(=O)[C@@H](N)CCN)NC(=O)[C@H](CC(C)C)NC(=O)[C@@H](N)CCN)NC(=O)[C@H](CC(C)C)NC(=O)[C@H](CCN)NC(=O)[C@H](CCCCNC(=O)[C@H](CC(C)C)NC(=O)[C@H](CCN)NC(=O)[C@H](CCCCNC(=O)[C@H](CC(C)C)NC(=O)[C@@H](N)CCN)NC(=O)[C@H](CC(C)C)NC(=O)[C@@H](N)CCN)NC(=O)[C@H](CC(C)C)NC(=O)[C@H](CCN)NC(=O)[C@H](CCCCNC(=O)[C@H](CC(C)C)NC(=O)[C@@H](N)CCN)NC(=O)[C@H](CC(C)C)NC(=O)[C@@H](N)CCN)C(N)=O` [MSt-200, (DabL)8(KDabL)4(KDabL)2(KDabL)] (I: H-[Dab]LK([Leu-Dab])[Dab]LK[Dab]LK[Dab]L-NH2 / II: H-[Dab]LK([Leu-Dab])[Dab]LK[Dab]L / III: H-[Dab]LK([Leu-Dab])[Dab]L / IV: H-[Dab]LK([Leu-Dab])[Dab]L; amide I:6-IV:C, I:9-II:C, II:6-III:C; N-terminus assumed), for which the “MIC E. coli DH5α” value in experiment [1] was found to be 2 µg/mL (≈ 0.486 µM). Besides, the “MIC B. subtilis BR151” value in experiment [2] stood at 2 µg/mL (≈ 0.486 µM). Also, the “MIC P. aeruginosa PAO1” value in experiment [3] was 3 µg/mL (≈ 0.729 µM).

Take `CC(C)C[C@H](NC(=O)[C@H](CCCCN)NC(=O)[C@H](CNC(=O)[C@H](CC(C)C)NC(=O)[C@H](CCCCN)NC(=O)[C@H](CNC(=O)[C@H](CC(C)C)NC(=O)[C@H](CCCCN)NC(=O)[C@H](CNC(=O)[C@H](CC(C)C)NC(=O)[C@@H](N)CCCCN)NC(=O)[C@H](CC(C)C)NC(=O)[C@@H](N)CCCCN)NC(=O)[C@H](CC(C)C)NC(=O)[C@H](CCCCN)NC(=O)[C@H](CNC(=O)[C@H](CC(C)C)NC(=O)[C@@H](N)CCCCN)NC(=O)[C@H](CC(C)C)NC(=O)[C@@H](N)CCCCN)NC(=O)[C@H](CC(C)C)NC(=O)[C@H](CCCCN)NC(=O)[C@H](CNC(=O)[C@H](CC(C)C)NC(=O)[C@H](CCCCN)NC(=O)[C@H](CNC(=O)[C@H](CC(C)C)NC(=O)[C@@H](N)CCCCN)NC(=O)[C@H](CC(C)C)NC(=O)[C@@H](N)CCCCN)NC(=O)[C@H](CC(C)C)NC(=O)[C@H](CCCCN)NC(=O)[C@H](CNC(=O)[C@H](CC(C)C)NC(=O)[C@@H](N)CCCCN)NC(=O)[C@H](CC(C)C)NC(=O)[C@@H](N)CCCCN)C(N)=O` [MSt-136, (KL)8(BKL)4(BKL)2(BKL)] (I: H-KL[Dap]([Leu-Lys])KL[Dap]KL[Dap]KL-NH2 / II: H-KL[Dap]([Leu-Lys])KL[Dap]KL / III: H-KL[Dap]([Leu-Lys])KL / IV: H-KL[Dap]([Leu-Lys])KL; amide I:6-IV:C, I:9-II:C, II:6-III:C): the “MIC E. coli DH5α” value in experiment [1] came out at 1 µg/mL (≈ 0.236 µM). For the same compound, the “MIC B. subtilis BR151” value in experiment [2] came to 2 µg/mL (≈ 0.472 µM). Moreover, in experiment [3], the “MIC P. aeruginosa PAO1” value was 2 µg/mL (≈ 0.472 µM).
